Patent US12144864B2, “Tubulysins and protein-tubulysin conjugates” (Regeneron Pharmaceuticals, Inc., priority 2018, dated 2024)
Read-outs that look alike come from different tables or passages of the source.

How the values were obtained:
H69AR cells = assay: Cytotoxicity in panel of MDR cell lines, H69AR (72 h and 144 h); assay type: cell-based, human; settings: for IC50: Homo sapiens
Procedure, shortened: (§1)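 Luminescent ATP readout (CellTiter-Glo) quantified viable cells after 72 h or 144 h exposure to 1:3 serial payload dilutions. Cells plated at 1000/well in their normal growth media. IC50 in M from a four-parameter logistic fit; % kill at top concentration taken as 100 − % viable.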

HL60/MX2 cells = assay: Cytotoxicity in panel of MDR cell lines, HL60/MX2 (72 h and 144 h); assay type: cell-based, human; settings: for IC50: Homo sapiens
Procedure, shortened: as §1

C4-2 cells [1] = assay: Cell-based killing assay of payloads (CellTiter-Glo), C4-2 cells; design: species or system human; settings: 5-day incubation
Procedure, shortened: (§2)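 Cells plated at 4000/well in line-specific complete medium, grown overnight, then exposed to 1:3 serial dilutions of payload (100 nM to […]) for 5 days. ATP-based CellTiter-Glo luminescence read; IC50 from four-parameter logistic 10-point fit, and % kill at top concentration as 100 − % viable.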

HCT-15 cells = assay: Cytotoxicity in panel of MDR cell lines, HCT-15 (72 h and 144 h); assay type: cell-based, human; settings: for IC50: Homo sapiens
Procedure, shortened: as §1

T47D cells = assay: Cell-based killing assay of payloads (CellTiter-Glo), T47D cells; design: species or system human; settings: 5-day incubation
Procedure, shortened: as §2

HCT15 cells = assay: cells; assay type: cell-based, human; settings: HCT15 cells
Procedure, shortened: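 HCT15 colorectal carcinoma cells, 1000 per well in RPMI/10% FBS, with or without 5 ug/mL verapamil, exposed to 1:3 serially diluted payloads for 5 days at 37 °C. Viability measured by CellTiter-Glo ATP luminescence; IC50 from four-parameter logistic fit of a 10-point curve, % kill at top concentration.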

HCT15/PRLR cells = assay: Cytotoxicity of anti-PRLR tubulysin ADCs and payloads in HCT15/PRLR cells with or without Verapamil; assay type: cell-based, human; settings: for IC50: Homo sapiens, HCT-15
Procedure: (§3) To test the ability of the disclosed tubulysin payloads to kill human cell lines, an in vitro cytotoxicity assay was performed. In vitro cytotoxicity of the disclosed payloads, as well as reference compounds, were evaluated using the CellTiter-Glo Assay Kit (Promega, Cat #G7573), in which the quantity of ATP present is used to determine the number of viable cells in culture. For the assay, C4-2, HEK293, or T47D cells were seeded at 4000 cells/well on Nunclon white 96-well plates in complete growth medium (DME high glucose:Ham's F12 at 4:1, 10% FBS, 100 units/ml Penicillin, 100 ug/ml streptomycin, 53 ug/ml glutatmine, 10 ug/ml insulin, 220 ng/ml biotin, 12.5 pg/ml T3, 12.5 ug/ml Adenine, 4 ug/ml transferrin for C42 cells; DME high glucose, 10% FBS, 100 units/ml Penicillin, 100 ug/ml streptomycin, 53 ug/ml glutatmine for HEK293; RPMI, 10% FBS, 100 units/ml Penicillin, 100 ug/ml streptomycin, 53 ug/ml glutatmine, 10 ug/ml insulin, 10 mM HEPEs, 200 nM Sodium Pyruvate for T47D cells) and grown overnight at 37° C. in 5% CO2. For cell viability curves, 1:3 serially diluted payloads were added to the cells at final concentrations ranging from 100 nM to […], including a no treatment control group, and were then incubated for 5 days. After the 5-day incubation, cells were incubated at room temperature with 100 μL of CellTiter-Glo reagents for 10 minutes. Relative luminescence units (RLU) were determined on a Victor plate reader (PerkinElmer). The IC50 values were determined from a four-parameter logistic equation over a 10-point response curve (GraphPad Prism). All IC50 values are expressed in molar (M) concentration. The percent cell killing (% kill) at the maximum concentration tested was estimated from the following formula (100−% viable cells). Averages±standard deviation (SD) are included where replicate experiments were performed.
Bioassays were developed to assess the efficacy of an anti-PRLR antibody conjugated with the disclosed tubulysin payloads and reference payloads. It was developed to assess the activity of tubulysin payloads after internalization of an anti-PRLR-tubulysin ADC into cells, release of the payload, and subsequent cytotoxicity. For this assay, a HCT15 line was engineered to express human full length PRLR (accession #NP_000940.1). The resulting stable cell line is referred to herein as HCT15/PRLR. In vitro cytotoxicity of the disclosed payloads, reference compounds, and tested ADCs were evaluated similarly as described in this example using HCT15/PRLR cells with or without […] of Verapamil diluted in normal culture medium. The compounds were tested at concentrations starting at 100 nM with 3-fold serial dilution. All IC50 values are expressed in nM concentration and the percent cell killing (% kill) at the maximum concentration tested was estimated from the following formula (100−% viable cells).

MES-SA/MX2 cells = assay: Cytotoxicity in panel of MDR cell lines, MES-SA/MX2 (72 h and 144 h); assay type: cell-based, human; settings: for IC50: Homo sapiens
Procedure, shortened: as §1

C4-2 cells [2] = assay: Cytotoxicity of anti-STEAP2 ADCs, payloads and reference compounds in C4-2 cells; assay type: cell-based, human
Procedure: as §3
To further test the ability of the disclosed tubulysin payloads, reference compounds, and antibody drug conjugates using these payloads, a cytotoxicity assay was performed using C4-2 cells as described in this example (see above). For these studies, anti-STEAP2 antibodies were conjugated to select tubulysins payloads, and the compounds were tested at concentrations starting at 100 nM with 3-fold serial dilution. All IC50 values are expressed in nM concentration and the percent cell killing at the maximum concentration tested was estimated from the following formula (100−% viable cells).

HEK293 cells = assay: Cell-based killing assay of payloads (CellTiter-Glo), HEK293 cells; design: species or system human; settings: 5-day incubation
Procedure, shortened: as §2

[3] = molecular target: T1, STEAP2 endogenously expressed on C4-2 cells (human, UniProt Q8NFT2 1-490); assay: cell-based or functional assay
T1 sequence (looked up): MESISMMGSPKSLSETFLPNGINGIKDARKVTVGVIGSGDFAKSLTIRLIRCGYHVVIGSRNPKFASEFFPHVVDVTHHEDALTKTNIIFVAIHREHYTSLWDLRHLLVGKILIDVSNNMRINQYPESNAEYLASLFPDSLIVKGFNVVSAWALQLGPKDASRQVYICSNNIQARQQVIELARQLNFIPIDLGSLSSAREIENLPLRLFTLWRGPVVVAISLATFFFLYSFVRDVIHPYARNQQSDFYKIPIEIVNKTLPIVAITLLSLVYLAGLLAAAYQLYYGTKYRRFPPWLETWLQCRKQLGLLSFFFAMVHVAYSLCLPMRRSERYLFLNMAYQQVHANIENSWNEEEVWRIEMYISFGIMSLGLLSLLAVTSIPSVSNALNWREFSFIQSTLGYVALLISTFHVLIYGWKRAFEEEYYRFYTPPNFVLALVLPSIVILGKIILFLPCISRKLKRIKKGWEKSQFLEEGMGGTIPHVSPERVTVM

[4] = at maximum concentration tested

For C#CCCCON(C(=O)[C@@H](NC(=O)[C@H]1CCCCN1C)[C@@H](C)CC)[C@H](C[C@@H](OC(C)=O)c1nc(C(=O)N[C@@H](Cc2ccc(N)cc2)CC(C)(C)C(=O)O)cs1)C(C)C [Ve, (4S)-4-({2-[(1R,3R)-1-(Acetyloxy)-4-methyl-3-[(2S,3S)-3-methyl-2-{[(2R)-1-methylpiperidin-2-yl]formamido}-N-(pent-4-yn-1-yloxy)pentanamido]pentyl]-1,3-thiazol-4-yl}formamido)-5-(4-aminophenyl)-2,2-dimethylpentanoic acid], the “H69AR % Kill 72 h” value (H69AR cells; 72 h incubation) was 96.6%, the “H69AR % Kill 144 h” value (H69AR cells; 144 h incubation) was 99.5% and the IC50 (H69AR cells; 72 h incubation, read-out: H69AR IC50 72 h) was 0.331 nM. The IC50 (H69AR cells; 144 h incubation, read-out: H69AR IC50 144 h) was 0.559 nM, the “HL60/MX2 % Kill 72 h” value (HL60/MX2 cells; 72 h incubation) was 98.3% and the “HL60/MX2 % Kill 144 h” value (HL60/MX2 cells; 144 h incubation) was 100%. It also gave an IC50 (HL60/MX2 cells; 72 h incubation, read-out: HL60/MX2 IC50 72 h) of less than 0.015 nM, an IC50 (HL60/MX2 cells; 144 h incubation, read-out: HL60/MX2 IC50 144 h) of less than 0.015 nM and an IC50 (C4-2 cells [1]; Homo sapiens, C4-2, 120 h, average ± SD where replicates) of less than 0.047 nM. For the same molecule, the “C4-2 % Kill” value (C4-2 cells [1]; at maximum concentration tested (100 − % viable cells)) was 92.6%, the “HCT-15 % Kill 72 h” value (HCT-15 cells; 72 h incubation) was 97.5% and the “HCT-15 % Kill 144 h” value (HCT-15 cells; 144 h incubation) was 99.7%. The IC50 (HCT-15 cells; 72 h incubation, read-out: HCT-15 IC50 72 h) was 0.0922 nM, the IC50 (HCT-15 cells; 144 h incubation, read-out: HCT-15 IC50 144 h) was 0.158 nM and the IC50 (T47D cells; Homo sapiens, T47D, 120 h) was 0.0731 nM. For the same molecule, the “T47D % Kill” value (T47D cells; [4]) was 69.8%, the “HCT-15 + verapamil % Kill” value (HCT15 cells; with 5 ug/mL Verapamil, maximum % cell killing) was 98.2 ± 1.2% and the IC50 (HCT15 cells; with 5 ug/mL Verapamil, read-out: HCT-15 + verapamil IC50) was 0.0654 nM. For the same molecule, the “HCT-15 % Kill” value (HCT15 cells; without Verapamil, maximum % cell killing) was 98.6 ± 0.7%, the IC50 (HCT15 cells; Homo sapiens, HCT-15, without Verapamil, read-out: HCT-15 IC50) was 0.273 nM and the IC50 (HCT15/PRLR cells; with Verapamil, read-out: IC50 (nM) on HCT15/PRLR w/ Verapamil) was 0.033 nM. For the same molecule, the IC50 (HCT15/PRLR cells; without Verapamil, read-out: IC50 (nM) on HCT15/PRLR w/o Verapamil) was 0.203 nM, the “% kill on HCT15/PRLR w/ Verapamil” value (HCT15/PRLR cells; with Verapamil, at maximum concentration tested) was 99% and the “% kill on HCT15/PRLR w/o Verapamil” value (HCT15/PRLR cells; without Verapamil, at maximum concentration tested) was 99%. For the same molecule, the “MES-SA/MX2 % Kill 72 h” value (MES-SA/MX2 cells; 72 h incubation) was 98.9%, the “MES-SA/MX2 % Kill 144 h” value (MES-SA/MX2 cells; 144 h incubation) was 100% and the IC50 (MES-SA/MX2 cells; 72 h incubation, read-out: MES-SA/MX2 IC50 72 h) was 0.52 nM. The IC50 (MES-SA/MX2 cells; 144 h incubation, read-out: MES-SA/MX2 IC50 144 h) was 0.734 nM, the IC50 (C4-2 cells [2]; Homo sapiens, top concentration 100 nM, 3-fold serial dilution) was 0.063 nM and the “% kill” value (C4-2 cells [2]; [4]) was 99%. The IC50 (HEK293 cells; Homo sapiens, HEK293, 120 h) was 0.103 nM and the “HEK293 % Kill” value (HEK293 cells; [4]) was 88.5%.

B1: Anti-STEAP2 N297Q Ab-LP3 (antibody, V domains shown)
VH: QVQLVESGGGVVQPGRSLRLSCVASGFTISSYGMNWVRQAPGKGLEWVAVISYDGGNKYSVDSVKGRFTISRDNSKNTLYLQMNSLRAEDSAVYYCARGRYFDLWGRGTLVTVSS
VL: DIQMTQSPSTLSASVGDRVTITCRASQSISSWLAWYQQKPGRAPNLLISKASSLKSGVPSRFSGSGSGTEFTLTVSSLQPDDFATYYCQQYYSYSYTFGQGTKLEIK
modifications: N297Q (EU numbering) in the heavy chain constant region; linker-payload LP3 (payload IVd) clicked to azido-PEG3-amine that transglutaminase put on heavy chain glutamines; DAR 3.8 (Table 7)
In the case of B1, the “% kill, C4-2 cells” value [3] is reported as 99% and the “IC50 (nM), cytotoxicity in C4-2 cells (CellTiter-Glo)” value [3] is reported as 0.097 nM.
